Data from patent US20030207813A1, “Retroviral protease inhibitor combinations” (priority 1995, published 2003).

Columns and labels:
NL4(538/524) = test: Viral isolate resistance assay per Markowitz et al., NL4(538/524); assay type: cell-based, HIV-1; settings: Human immunodeficiency virus 1; Table 10; NL4(P22-538) selected against Example 5, 24 passages
Source text: (§1) RF represents the HIV-1 strain HIV-LRF and RFR represents a mixture of resistant strains obtained by selection of RF against the compound of Example 1. RFR comprises a mixture of viral strains having protease genotypes of G48V (14/40 clones); G48V, V82A (18/40 clones); G48V, L90S (2/40 clones); G48V, 154T, V82A (1/40 clones); G48M (1/40 clones); G48V, Q61H (1/40 clones); V13I, G48V (1/40 clones); G48V, F53L, V82A (1/40 clones); and G48V, V82A, C95Y (1/40 clones). RFR2 represents a mixture of resistant strains obtained by cloning RFR by three rounds of growth at limiting dilution. RFR2 comprises a mixture of viral strains having protease genotypes of G48V, V82A (13/15 clones); G17E, G48V, V82A (1/15 clones); and G48V, V82A, N37D, N88D (1/15 clones). RFRR represents a mixture of resistant strains obtained by selection of RF against the compounds of Examples 1 and 2 and then cloning by three rounds of growth at limiting dilution. RFRR comprises a mixture of viral strains having protease genotypes of G48V, 154T, L63P, V82A (7/9 clones); G48V, 154T, L63P, V82A, N88S (1/9 clones); and G48V, 154T, L63P, G73M, V82A (1/9 clones). SF162 represents the HIV-1 strain SF-162 and SF162R represents a mixture of resistant strains obtained by selection of SF162 against the compound of Example 1. SF162R comprises a mixture of viral strains having protease genotypes of M461, F53L, L63P, A71V, N88D (2/3 clones); and M46I, F53L, L63P, A71V, N88D, Q92R (1/3 clones). 89-959 represents the HIV-1 strain 89-959 and 89-959R represents a mixture of resistant strains obtained by selection of 89-959 against the compound of Example 2. 89-959R comprises a mixture of viral strains having protease genotypes of N88S (4/5 clones); and D25N, T26A, D30N, D37N, R41K, G73D, R87K, N88S (1/4 clones). NL4 represents the HIV-1 strain HIV-1NL4-3. NL4(G48V) represents a strain having a synthetically generated site-directed mutation in the protease from glycine to valine at amino acid position number 48. NL4(I84V) represents a strain having a synthetically generated site-directed mutation in the protease from isoleucine to valine at amino acid position number 84. NL4(R8Q,M46I) represents a strain having synthetically generated site-directed mutations in the protease from arginine to glutamine at amino acid position number 8 and methionine to isoleucine at amino acid position number 46. NL4(P22-538) represents a mixture of resistant strains obtained by selection of HIV-1NL4-3 against the compound of Example 10 after 22 passages comprising protease genotypes M46I, L63P, A71V, V82F, I84V (4/10); M46I, L63P, V82F, I84V (3/10); and M46I, A71V, V82F, I84V (3/10). NL4(P37-538) represents resistant strains obtained by selection of HIV-1NL4-3 against the compound of Example 10 after 37 passages comprising protease genotype M46I, L63P, A71V, 184A. NL4(538/524) represents resistant strains obtained by selection of NL4(P22-538) against the compound of Example 5 after 24 passages comprising protease genotype M46I, L63P, A71V, 184A. NL4(538/P7-AG) represents a mixture of resistant strains obtained by selection of NL4(P22-538) against the compound of Example 12 after 7 passages comprising protease genotypes M46I, L63P, A71V, 184A; and V321, V82I. NL4(538/P24-AG) represents resistant strains obtained by selection of NL4(P22-538) against the compound of Example 12 after 24 passages comprising protease genotype M46I, L63P, A71V, 184A. […]

HIV-1NL4-3 = test: microbe, parasite or virus in culture; assay type: cell-based; settings: Human immunodeficiency virus 1, NL4
Source text: (§2) RF represents the HIV-1 strain HIV-LRF and RFR represents a mixture of resistant strains obtained by selection of RF against the compound of Example 1. […] RFR2 represents a mixture of resistant strains obtained by cloning RFR by three rounds of growth at limiting dilution. […] RFRR represents a mixture of resistant strains obtained by selection of RF against the compounds of Examples 1 and 2 and then cloning by three rounds of growth at limiting dilution. […] SF162 represents the HIV-1 strain SF-162 and SF162R represents a mixture of resistant strains obtained by selection of SF162 against the compound of Example 1. […] 89-959 represents the HIV-1 strain 89-959 and 89-959R represents a mixture of resistant strains obtained by selection of 89-959 against the compound of Example 2. […] NL4 represents the HIV-1 strain HIV-1NL4-3. NL4(G48V) represents a strain having a synthetically generated site-directed mutation in the protease from glycine to valine at amino acid position number 48. NL4(I84V) represents a strain having a synthetically generated site-directed mutation in the protease from isoleucine to valine at amino acid position number 84. NL4(R8Q,M46I) represents a strain having synthetically generated site-directed mutations in the protease from arginine to glutamine at amino acid position number 8 and methionine to isoleucine at amino acid position number 46.

NL4(G48V) = test: Viral isolate resistance assay per Markowitz et al., NL4(G48V); assay type: cell-based, HIV-1; settings: Human immunodeficiency virus 1, Table 7
Source text: as §2

NL4(R8Q,M46I) = test: Viral isolate resistance assay per Markowitz et al., NL4(R8Q,M46I); assay type: cell-based, HIV-1; settings: Human immunodeficiency virus 1, read-out: Virus Isolate (EC50 nM) NL4(R8O, M46I)
Source text: (§3) RF represents the HIV-1 strain HIV-LRF and RFR represents a mixture of resistant strains obtained by selection of RF against the compound of Example 1. RFR comprises a mixture of viral strains having protease genotypes of G48V (14/40 clones); G48V, V82A (18/40 clones); G48V, L90S (2/40 clones); G48V, 154T, V82A (1/40 clones); G48M (1/40 clones); G48V, Q61H (1/40 clones); V13I, G48V (1/40 clones); G48V, F53L, V82A (1/40 clones); and G48V, V82A, C95Y (1/40 clones). RFR2 represents a mixture of resistant strains obtained by cloning RFR by three rounds of growth at limiting dilution. RFR2 comprises a mixture of viral strains having protease genotypes of G48V, V82A (13/15 clones); G17E, G48V, V82A (1/15 clones); and G48V, V82A, N37D, N88D (1/15 clones). RFRR represents a mixture of resistant strains obtained by selection of RF against the compounds of Examples 1 and 2 and then cloning by three rounds of growth at limiting dilution. RFRR comprises a mixture of viral strains having protease genotypes of G48V, 154T, L63P, V82A (7/9 clones); G48V, 154T, L63P, V82A, N88S (1/9 clones); and G48V, 154T, L63P, G73M, V82A (1/9 clones). SF162 represents the HIV-1 strain SF-162 and SF162R represents a mixture of resistant strains obtained by selection of SF162 against the compound of Example 1. SF162R comprises a mixture of viral strains having protease genotypes of M461, F53L, L63P, A71V, N88D (2/3 clones); and M46I, F53L, L63P, A71V, N88D, Q92R (1/3 clones). 89-959 represents the HIV-1 strain 89-959 and 89-959R represents a mixture of resistant strains obtained by selection of 89-959 against the compound of Example 2. 89-959R comprises a mixture of viral strains having protease genotypes of N88S (4/5 clones); and D25N, T26A, D30N, D37N, R41K, G73D, R87K, N88S (1/4 clones). NL4 represents the HIV-1 strain HIV-1NL4-3. NL4(G48V) represents a strain having a synthetically generated site-directed mutation in the protease from glycine to valine at amino acid position number 48. […]

NL4(538/P24-AG) = test: Viral isolate resistance assay per Markowitz et al., NL4(538/P24-AG); assay type: cell-based, HIV-1; settings: Human immunodeficiency virus 1; Table 10; NL4(P22-538) selected against Example 12, 24 passages
Source text: as §1

NL4(P37-538) = test: Viral isolate resistance assay per Markowitz et al., NL4(P37-538); assay type: cell-based, HIV-1; settings: Human immunodeficiency virus 1; Table 9; selected against Example 10, 37 passages; read-out: Virus Isolate (EC50 nM) NL4(P37-538)
Source text: RF represents the HIV-1 strain HIV-LRF and RFR represents a mixture of resistant strains obtained by selection of RF against the compound of Example 1. RFR comprises a mixture of viral strains having protease genotypes of G48V (14/40 clones); G48V, V82A (18/40 clones); G48V, L90S (2/40 clones); G48V, 154T, V82A (1/40 clones); G48M (1/40 clones); G48V, Q61H (1/40 clones); V13I, G48V (1/40 clones); G48V, F53L, V82A (1/40 clones); and G48V, V82A, C95Y (1/40 clones). RFR2 represents a mixture of resistant strains obtained by cloning RFR by three rounds of growth at limiting dilution. RFR2 comprises a mixture of viral strains having protease genotypes of G48V, V82A (13/15 clones); G17E, G48V, V82A (1/15 clones); and G48V, V82A, N37D, N88D (1/15 clones). RFRR represents a mixture of resistant strains obtained by selection of RF against the compounds of Examples 1 and 2 and then cloning by three rounds of growth at limiting dilution. RFRR comprises a mixture of viral strains having protease genotypes of G48V, 154T, L63P, V82A (7/9 clones); G48V, 154T, L63P, V82A, N88S (1/9 clones); and G48V, 154T, L63P, G73M, V82A (1/9 clones). SF162 represents the HIV-1 strain SF-162 and SF162R represents a mixture of resistant strains obtained by selection of SF162 against the compound of Example 1. SF162R comprises a mixture of viral strains having protease genotypes of M461, F53L, L63P, A71V, N88D (2/3 clones); and M46I, F53L, L63P, A71V, N88D, Q92R (1/3 clones). 89-959 represents the HIV-1 strain 89-959 and 89-959R represents a mixture of resistant strains obtained by selection of 89-959 against the compound of Example 2. 89-959R comprises a mixture of viral strains having protease genotypes of N88S (4/5 clones); and D25N, T26A, D30N, D37N, R41K, G73D, R87K, N88S (1/4 clones). NL4 represents the HIV-1 strain HIV-1NL4-3. NL4(G48V) represents a strain having a synthetically generated site-directed mutation in the protease from glycine to valine at amino acid position number 48. NL4(I84V) represents a strain having a synthetically generated site-directed mutation in the protease from isoleucine to valine at amino acid position number 84. NL4(R8Q,M46I) represents a strain having synthetically generated site-directed mutations in the protease from arginine to glutamine at amino acid position number 8 and methionine to isoleucine at amino acid position number 46. NL4(P22-538) represents a mixture of resistant strains obtained by selection of HIV-1NL4-3 against the compound of Example 10 after 22 passages comprising protease genotypes M46I, L63P, A71V, V82F, I84V (4/10); M46I, L63P, V82F, I84V (3/10); and M46I, A71V, V82F, I84V (3/10). NL4(P37-538) represents resistant strains obtained by selection of HIV-1NL4-3 against the compound of Example 10 after 37 passages comprising protease genotype M46I, L63P, A71V, 184A. NL4(538/524) represents resistant strains obtained by selection of NL4(P22-538) against the compound of Example 5 after 24 passages comprising protease genotype M46I, L63P, A71V, 184A. NL4(538/P7-AG) represents a mixture of resistant strains obtained by selection of NL4(P22-538) against the compound of Example 12 after 7 passages comprising protease genotypes M46I, L63P, A71V, 184A; and V321, V82I. NL4(538/P24-AG) represents resistant strains obtained by selection of NL4(P22-538) against the compound of Example 12 after 24 passages comprising protease genotype M46I, L63P, A71V, 184A. NLA(P19-003) represents resistant strains obtained by selection of HIV-1^NL4-3 against the compound of Example 9 after 19 passages comprising protease genotype R8K, M46I. NL4(P34-003) represents resistant strains obtained by selection of HIV-1^NL4-3 against the compound of Example 9 after 34 passages comprising protease genotype R8K, M46I, L63P, A71V, L90M.
The viral isolate resistance results summarized in Tables 7-11 were generated according to the assay procedures described by Markowitz et al., Journal of Virology, vol. […]

NL4(538/P7-AG) = test: Viral isolate resistance assay per Markowitz et al., NL4(538/P7-AG); assay type: cell-based, HIV-1; settings: Human immunodeficiency virus 1; Table 10; NL4(P22-538) selected against Example 12, 7 passages
Source text: as §1

NLA(P19-003) = test: Viral isolate resistance assay per Markowitz et al., NLA(P19-003); assay type: cell-based, HIV-1; settings: Human immunodeficiency virus 1, read-out: Virus Isolate (EC50 nM) NLA(P19-003)
Source text: as §3

NL4(P34-003) = test: Viral isolate resistance assay per Markowitz et al., NL4(P34-003); assay type: cell-based, HIV-1; settings: Human immunodeficiency virus 1; Table 11; selected against Example 9, 34 passages
Source text: as §3

NL4(P22-538) = test: Viral isolate resistance assay per Markowitz et al., NL4(P22-538); assay type: cell-based, HIV-1; settings: Human immunodeficiency virus 1; Table 9; selected against Example 10, 22 passages; read-out: Virus Isolate (EC50 nM) NL4(P22-538)
Source text: as §1

NL4(I84V) = test: Viral isolate resistance assay per Markowitz et al., NL4(I84V); assay type: cell-based, HIV-1; settings: Human immunodeficiency virus 1, Table 7
Source text: as §2

CC(C)c1nc(CN(C)C(=O)N[C@H](C(=O)N[C@@H](Cc2ccccc2)C[C@H](O)[C@H](Cc2ccccc2)NC(=O)OCc2cncs2)C(C)C)cs1 [Example 10]
EC50 (NL4(538/524)): 6400 nM
EC90 (HIV-1NL4-3; Table 7, EC90, read-out: Virus Isolate (EC90 nM) NL4): 80 nM
EC50 (HIV-1NL4-3; Table 8, read-out: Virus Isolate (EC50 nM) NL4): 80 nM
EC90 (NL4(G48V)): 160 nM
EC50 (NL4(R8Q,M46I)): 240 nM
EC50 (NL4(538/P24-AG)): 6400 nM
EC50 (NL4(P37-538)): 6400 nM
EC50 (NL4(538/P7-AG)): 6400 nM
EC50 (NLA(P19-003)): 400 nM
EC50 (NL4(P34-003)): 400 nM
EC50 (NL4(P22-538)): 1600 nM
EC90 (NL4(I84V)): 800 nM
